# According to ChEMBL document CHEMBL4340519, “The effects of Arctigenin-Valine ester on chemotherapy-induced myelosuppression in mice” (Bioorg Med Chem, 2019):
# Active and inactive are the calls of the source. No cut-off for these calls is given here.
# How the values were obtained:
# [1] = system: Mus musculus; test: Protection against CTX-induced myelosuppression in BALB/c mouse assessed as effect on WBC level at 5 mg/kg, ip administered daily for 7 days starting from 3 days post-CTX challenge measured 24 hrs post-last dose (reference value: 10.34 +/- 1.4 10^9/L); type: functional
# [2] = Toxicity in BALB/c mouse assessed as change in body temperature at 5 to 10 mg/kg, ip administered daily for 7 days measured during compound dosing; type: organism-based; settings: in vivo, 168 h
# [3] = Toxicity in BALB/c mouse assessed as behavioral changes at 5 to 10 mg/kg, ip administered daily for 7 days measured during compound dosing; type: organism-based; settings: in vivo, 168 h
# [4] = system: Mus musculus; test: Protection against CTX-induced toxicity in BALB/c mouse assessed as loss of cool skin at 5 to 10 mg/kg, ip administered daily for 7 days starting from 3 days post-CTX challenge and measured during compound dosing; type: functional, organism-based
# [5] = system: Mus musculus; test: (§1) Protection against CTX-induced myelosuppression in BALB/c mouse assessed as change in hematopoietic progenitor cell cycle distribution by increase in accumulation at S-phase at 5 to 10 mg/kg, ip administered daily for 7 days starting from 3 days post-CTX challenge measured 24 hrs post-last dose by propidium iodide staining based flow cytometry; type: functional, organism-based
# [6] = system: Mus musculus; test: Protection against CTX-induced myelosuppression in BALB/c mouse assessed as effect on PLT level at 5 mg/kg, ip administered daily for 7 days starting from 3 days post-CTX challenge measured 24 hrs post-last dose (reference value: 628.5 +/- 66.09 10^9/L); type: functional
# [7] = system: Mus musculus; test: Protection against CTX-induced toxicity in BALB/c mouse assessed as loss of depilation at 5 to 10 mg/kg, ip administered daily for 7 days starting from 3 days post-CTX challenge and measured during compound dosing; type: functional, organism-based
# [8] = Toxicity in BALB/c mouse assessed as change in appetite at 5 to 10 mg/kg, ip administered daily for 7 days measured during compound dosing; type: organism-based; settings: in vivo, 168 h
# [9] = system: Mus musculus; test: Protection against CTX-induced myelosuppression in BALB/c mouse assessed as effect on RBC level at 5 mg/kg, ip administered daily for 7 days starting from 3 days post-CTX challenge measured 24 hrs post-last dose (reference value: 8.63 +/- 0.68 10^12/L); type: functional
# [10] = system: Mus musculus; test: Protection against CTX-induced myelosuppression in BALB/c mouse assessed as effect on RBC level at 10 mg/kg, ip administered daily for 7 days starting from 3 days post-CTX challenge measured 24 hrs post-last dose (reference value: 8.63 +/- 0.68 10^12/L); type: functional
# [11] = system: Mus musculus; test: Protection against CTX-induced myelosuppression in BALB/c mouse assessed as effect on WBC level at 10 mg/kg, ip administered daily for 7 days starting from 3 days post-CTX challenge measured 24 hrs post-last dose (reference value: 10.34 +/- 1.4 10^9/L); type: functional
# [12] = system: Mus musculus; test: as §1, with “G2/M-phase” for “S-phase”; type: functional, organism-based
# [13] = system: Mus musculus; test: (§2) Protection against CTX-induced myelosuppression in BALB/c mouse assessed as improvement in hematopoiesis by measuring increase in colonies of erythroid at 5 to 10 mg/kg, ip administered daily for 7 days starting from 3 days post-CTX challenge measured 24 hrs post-last dose by inverted microscopic method; type: functional, organism-based
# [14] = system: Mus musculus; test: Protection against CTX-induced myelosuppression in BALB/c mouse assessed as improvement in immunity by measuring spleen index at 5 mg/kg, ip administered daily for 7 days starting from 3 days post-CTX challenge measured 24 hrs post-last dose (reference value: 8.94 +/- […]); type: functional
# [15] = system: Mus musculus; test: as §1, with “decrease” for “increase”, “G0/G1-phase” for “S-phase”; type: functional, organism-based
# [16] = system: Mus musculus; test: Protection against CTX-induced myelosuppression in BALB/c mouse assessed as effect on HGB level at 5 mg/kg, ip administered daily for 7 days starting from 3 days post-CTX challenge measured 24 hrs post-last dose (reference value: 113.2 +/- 6.66 g/L); type: functional
# [17] = system: Mus musculus; test: as §2, with “burst forming units” for “colonies”; type: functional, organism-based
# [18] = system: Mus musculus; test: Protection against CTX-induced myelosuppression in BALB/c mouse assessed as effect on HGB level at 10 mg/kg, ip administered daily for 7 days starting from 3 days post-CTX challenge measured 24 hrs post-last dose (reference value: 113.2 +/- 6.66 g/L); type: functional
# [19] = system: Mus musculus; test: as §2, with “bone marrow nucleated cells” for “colonies of erythroid”; type: functional, organism-based
# [20] = system: Mus musculus; test: Protection against CTX-induced myelosuppression in BALB/c mouse assessed as upregulation of MEK expression at 5 to 10 mg/kg, ip administered daily for 7 days starting from 3 days post-CTX challenge measured 24 hrs post-last dose by Western blot analysis; type: functional, organism-based
# [21] = system: Mus musculus; test: as §2, with “granulocyte macrophage” for “erythroid”; type: functional, organism-based
# [22] = system: Mus musculus; test: Protection against CTX-induced toxicity in BALB/c mouse assessed as loss of diarrhea at 5 to 10 mg/kg, ip administered daily for 7 days starting from 3 days post-CTX challenge and measured during compound dosing; type: functional, organism-based
# [23] = system: Mus musculus; test: as §2, with “megakaryocytes” for “erythroid”; type: functional, organism-based
# [24] = Toxicity in BALB/c mouse assessed as effect on appearance of shiny hair at 5 to 10 mg/kg, ip administered daily for 7 days measured during compound dosing; type: organism-based; settings: in vivo, 168 h
# [25] = system: Mus musculus; test: Protection against CTX-induced myelosuppression in BALB/c mouse assessed as improvement in hematopoiesis by decrease in granulocyte macrophage-colony stimulating factor level at 5 to 10 mg/kg, ip administered daily for 7 days starting from 3 days post-CTX challenge measured 24 hrs post-last dose by ELISA; type: functional, organism-based
# [26] = system: Mus musculus; test: Protection against CTX-induced myelosuppression in BALB/c mouse assessed as improvement in immunity by measuring spleen index at 10 mg/kg, ip administered daily for 7 days starting from 3 days post-CTX challenge measured 24 hrs post-last dose (reference value: 8.94 +/- […]); type: functional
# [27] = system: Mus musculus; test: Protection against CTX-induced myelosuppression in BALB/c mouse assessed as upregulation of phosphorylated ERK expression at 5 to 10 mg/kg, ip administered daily for 7 days starting from 3 days post-CTX challenge measured 24 hrs post-last dose by Western blot analysis; type: functional, organism-based
# [28] = system: Mus musculus; test: Protection against CTX-induced toxicity in BALB/c mouse assessed as loss of hematuria at 5 to 10 mg/kg, ip administered daily for 7 days starting from 3 days post-CTX challenge and measured during compound dosing; type: functional, organism-based
# [29] = system: Mus musculus; test: Protection against CTX-induced toxicity in BALB/c mouse assessed as restoration of normal body weight at 5 to 10 mg/kg, ip administered daily for 7 days starting from 3 days post-CTX challenge and measured during compound dosing; type: functional, organism-based
# [30] = system: Mus musculus; test: Protection against CTX-induced myelosuppression in BALB/c mouse assessed as effect on PLT level at 10 mg/kg, ip administered daily for 7 days starting from 3 days post-CTX challenge measured 24 hrs post-last dose (reference value: 628.5 +/- 66.09 10^9/L); type: functional
# [31] = system: Mus musculus; test: Protection against CTX-induced myelosuppression in BALB/c mouse assessed as improvement in hematopoiesis by decrease in thrombopoietin level at 5 to 10 mg/kg, ip administered daily for 7 days starting from 3 days post-CTX challenge measured 24 hrs post-last dose by ELISA; type: functional, organism-based
# [32] = system: Mus musculus; test: Protection against CTX-induced toxicity in BALB/c mouse assessed as restoration of normal food intake at 5 to 10 mg/kg, ip administered daily for 7 days starting from 3 days post-CTX challenge and measured during compound dosing; type: functional, organism-based
# [33] = system: Mus musculus; test: Protection against CTX-induced myelosuppression in BALB/c mouse assessed as improvement in hematopoiesis by decrease in erythropoietin level at 5 to 10 mg/kg, ip administered daily for 7 days starting from 3 days post-CTX challenge measured 24 hrs post-last dose by ELISA; type: functional, organism-based
compound,measurement,setting,value
COc1ccc(C[C@H]2COC(=O)[C@@H]2Cc2ccc(OC(=O)[C@@H](N)C(C)C)c(OC)c2)cc1OC,Activity,[1],9.29 ×10⁹ /L
same,Activity,[2],Non-Toxic
same,Activity,[3],Non-Toxic
same,Activity,[4],Active
same,Activity,[5],Active
same,Activity,[6],796 ×10⁹ /L
same,Activity,[7],Active
same,Activity,[8],Non-Toxic
same,Activity,[9],8.8 ×10¹² /L
same,Activity,[10],9.24 ×10¹² /L
same,Activity,[11],8.65 ×10⁹ /L
same,Activity,[12],Active
same,Activity,[13],Active
same,Activity index,[14],8.66 mg/g
same,Activity,[15],Active
same,Activity,[16],120 g/L
same,Activity,[17],Active
same,Activity,[18],125.5 g/L
same,Activity,[19],Active
same,Activity,[20],Active
same,Activity,[21],Active
same,Activity,[22],Active
same,Activity,[23],Active
same,Activity,[24],Non-Toxic
same,Activity,[25],Active
same,Activity index,[26],8.47 mg/g
same,Activity,[27],Active
same,Activity,[28],Active
same,Activity,[29],Active
same,Activity,[30],848 ×10⁹ /L
same,Activity,[31],Active
same,Activity,[32],Active
same,Activity,[33],Active
